Experimental data from patent US12180198B2, “Ribocil C antibiotics effective for Gram-negative pathogens” (THE BOARD OF TRUSTEES OF THE UNIVERSITY OF ILLINOIS, priority 2018, dated 2024).
≈ marks a conversion by molar mass, not a printed value. Where a name gives a salt, the structure may show the parent alone. Read-outs that look alike come from different tables or passages of the source.

Key:
Test in all cases: MIC, micro-dilution broth method
Assay type in all cases: cell-based
A. baumannii W41979 = conditions: Acinetobacter baumannii
Outline: (§1)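 MICs were determined by CLSI broth micro-dilution in cation-adjusted Mueller-Hinton broth, with all testing done in biological triplicate. Values are reported in […].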

E. cloacae BAA-2468 = conditions: Enterobacter cloacae, BAA2468
Outline: as §1

K. pneumoniae BAA-2342 = conditions: Klebsiella pneumoniae, BAA2342
Outline: as §1

A. baumannii M13100 = conditions: Acinetobacter baumannii
Outline: as §1

E. coli BAA-2340 = conditions: Escherichia coli, BAA2340
Outline: as §1

A. baumannii WO22 = conditions: Acinetobacter baumannii
Outline: as §1

A. baumannii KB357 = conditions: Acinetobacter baumannii
Outline: as §1

E. coli BAA-2469 = conditions: Escherichia coli, BAA2469
Outline: as §1

K. pneumoniae M67198 = conditions: Klebsiella pneumoniae
Outline: as §1

K. pneumoniae BAA-2473 = conditions: Klebsiella pneumoniae, BAA2473
Outline: as §1

E. coli AR-0349 = conditions: Escherichia coli, AR0349
Outline: as §1

E. coli ΔrfaC JW3596 = conditions: Escherichia coli
Outline: as §1

E. coli BAA-2471 = conditions: Escherichia coli, BAA2471
Outline: as §1

K. pneumoniae BAA-1705 = conditions: Klebsiella pneumoniae, BAA1705
Outline: as §1

K. pneumoniae S20595 = conditions: Klebsiella pneumoniae
Outline: as §1

K. pneumoniae S47889 = conditions: Klebsiella pneumoniae
Outline: as §1

E. coli AR-0346 = conditions: Escherichia coli, AR0346
Outline: as §1

K. pneumoniae M14723 = conditions: Klebsiella pneumoniae
Outline: as §1

E. coli AR-0495 = conditions: Escherichia coli, AR0495
Outline: as §1

A. baumannii KB343 = conditions: Acinetobacter baumannii
Outline: as §1

E. coli M66623 = conditions: Escherichia coli
Outline: as §1

S. aureus ATCC 29213 = conditions: for increase in MIC in the presence of serum: S. aureus ATCC 29213, +50% human serum vs none
E. cloacae BAA-2341 = conditions: Enterobacter cloacae, BAA2341
Outline: as §1

A. baumannii F19521 = conditions: Acinetobacter baumannii
Outline: as §1

E. coli MG1655 = conditions: Escherichia coli
Outline: as §1

E. coli ΔtolC JW5503 = conditions: Escherichia coli
Outline: as §1

K. pneumoniae AR-0347 = conditions: Klebsiella pneumoniae, AR0347
Outline: as §1

E. cloacae ATCC 29893 = conditions: Enterobacter cloacae, ATCC29893
Outline: as §1

K. pneumoniae M67297 = conditions: Klebsiella pneumoniae
Outline: as §1

E. cloacae S28901.1 = conditions: Enterobacter cloacae
Outline: as §1

E. coli AR-0493 = conditions: Escherichia coli, AR0493
Outline: as §1

P. aeruginosa PA01 = conditions: Pseudomonas aeruginosa
Outline: as §1

## Cc1c(CN(C)C(=O)/C=C/c2cnc3c(c2)CCC(=O)N3)oc2ccccc12 [Debio-1452, (E)-N-methyl-N-((3-methylbenzofuran-2-yl)methyl)-3-(7-oxo-5,6,7,8-tetrahydro-1,8-naphthyridin-3-yl)acrylamide, reference compound]
A. baumannii W41979; A. baumannii W41979, read-out: MIC
  MIC: > 32 µg/mL
E. cloacae BAA-2468; E. cloacae BAA-2468, read-out: MIC
  MIC: > 32 µg/mL
K. pneumoniae BAA-2342; K. pneumoniae BAA-2342, read-out: MIC
  MIC: > 32 µg/mL
A. baumannii M13100; A. baumannii M13100, read-out: MIC
  MIC: > 32 µg/mL
E. coli BAA-2340; E. coli BAA-2340, read-out: MIC
  MIC: > 32 µg/mL
A. baumannii WO22; A. baumannii WO22, read-out: MIC
  MIC: > 32 µg/mL
A. baumannii KB357; A. baumannii KB357, read-out: MIC
  MIC: > 32 µg/mL
E. coli BAA-2469; E. coli BAA-2469, read-out: MIC
  MIC: 4 µg/mL (≈ 10.7 µM)
K. pneumoniae M67198; K. pneumoniae M67198, read-out: MIC
  MIC: > 32 µg/mL
K. pneumoniae BAA-2473; K. pneumoniae BAA-2473, read-out: MIC
  MIC: > 32 µg/mL
E. coli AR-0349; E. coli AR-0349, read-out: MIC
  MIC: 4 µg/mL (≈ 10.7 µM)
E. coli ΔrfaC JW3596
  MIC: 0.5 µg/mL (≈ 1.33 µM)
E. coli BAA-2471; E. coli BAA-2471, read-out: MIC
  MIC: 8 µg/mL (≈ 21.3 µM)
K. pneumoniae BAA-1705; K. pneumoniae BAA-1705, read-out: MIC
  MIC: > 32 µg/mL
K. pneumoniae S20595; K. pneumoniae S20595, read-out: MIC
  MIC: > 32 µg/mL
K. pneumoniae S47889; K. pneumoniae S47889, read-out: MIC
  MIC: > 32 µg/mL
E. coli AR-0346; E. coli AR-0346, read-out: MIC
  MIC: > 32 µg/mL
K. pneumoniae M14723; K. pneumoniae M14723, read-out: MIC
  MIC: > 32 µg/mL
E. coli AR-0495; E. coli AR-0495, read-out: MIC
  MIC: 8 µg/mL (≈ 21.3 µM)
A. baumannii KB343; A. baumannii KB343, read-out: MIC
  MIC: > 32 µg/mL
E. coli M66623; E. coli M66623, read-out: MIC
  MIC: > 32 µg/mL
S. aureus ATCC 29213; S. aureus ATCC 29213
  MIC: 0.008 to 0.016 µg/mL
S. aureus ATCC 29213
  increase in MIC in the presence of serum: 8 fold
S. aureus ATCC 29213; Staphylococcus aureus, ATCC29213, S. aureus ATCC 29213 (+50% Human serum), read-out: MIC
  MIC: 0.125 µg/mL (≈ 0.333 µM)
S. aureus ATCC 29213; Staphylococcus aureus, ATCC29213, S. aureus ATCC 29213, read-out: MIC
  MIC: 0.008 µg/mL (≈ 0.0213 µM)
E. cloacae BAA-2341; E. cloacae BAA-2341, read-out: MIC
  MIC: > 32 µg/mL
A. baumannii F19521; A. baumannii F19521, read-out: MIC
  MIC: > 32 µg/mL
E. coli MG1655; E. coli MG1655, read-out: MIC
  MIC: > 32 µg/mL
E. coli ΔtolC JW5503
  MIC: 0.031 µg/mL (≈ 0.0826 µM)
K. pneumoniae AR-0347; K. pneumoniae AR-0347, read-out: MIC
  MIC: > 32 µg/mL
E. cloacae ATCC 29893; E. cloacae ATCC 29893, read-out: MIC
  MIC: > 32 µg/mL
K. pneumoniae M67297; K. pneumoniae M67297, read-out: MIC
  MIC: > 32 µg/mL
E. cloacae S28901.1; E. cloacae S28901.1, read-out: MIC
  MIC: > 32 µg/mL
E. coli AR-0493; E. coli AR-0493, read-out: MIC
  MIC: > 32 µg/mL
P. aeruginosa PA01; P. aeruginosa PA01, read-out: MIC
  MIC: > 32 µg/mL

## Cc1c(CN(C)C(=O)/C=C/c2cnc3c(c2)CC(N)C(=O)N3)oc2ccccc12 (stereo not drawn) [Debio-1452-NH3, (E)-3-(6-amino-7-oxo-5,6,7,8-tetrahydro-1,8-naphthyridin-3-yl)-N-methyl-N-((3-methylbenzofuran-2-yl)methyl)acrylamide hydrochloride]
A. baumannii W41979; W41979
  MIC: 4 µg/mL
E. cloacae BAA-2468
  MIC: 8 µg/mL
K. pneumoniae BAA-2342
  MIC: 16 µg/mL
A. baumannii M13100; M13100
  MIC: 16 µg/mL
E. coli BAA-2340
  MIC: 4 µg/mL
A. baumannii WO22; WO22
  MIC: 64 µg/mL
A. baumannii KB357; KB357
  MIC: 64 µg/mL
E. coli BAA-2469
  MIC: 2 µg/mL
K. pneumoniae M67198; M67198
  MIC: 32 µg/mL
K. pneumoniae BAA-2473
  MIC: 16 µg/mL
E. coli AR-0349
  MIC: 2 µg/mL
E. coli ΔrfaC JW3596
  MIC: 0.25 µg/mL
E. coli BAA-2471
  MIC: 4 µg/mL
K. pneumoniae BAA-1705
  MIC: 8 µg/mL
K. pneumoniae S20595; S20595
  MIC: 16 µg/mL
K. pneumoniae S47889; S47889
  MIC: 8 µg/mL
E. coli AR-0346
  MIC: 8 µg/mL
K. pneumoniae M14723; M14723
  MIC: 16 µg/mL
E. coli AR-0495
  MIC: 4 µg/mL
A. baumannii KB343; KB343
  MIC: 64 µg/mL
E. coli M66623; M66623
  MIC: 8 µg/mL
S. aureus ATCC 29213
  increase in MIC in the presence of serum: 2 fold
S. aureus ATCC 29213; Staphylococcus aureus, ATCC29213, S. aureus ATCC 29213
  MIC: 0.03 µg/mL
S. aureus ATCC 29213; Staphylococcus aureus, ATCC29213, S. aureus ATCC 29213 (+50% Human serum)
  MIC: 0.062 µg/mL
E. cloacae BAA-2341
  MIC: 8 µg/mL
A. baumannii F19521; F19521
  MIC: 4 µg/mL
E. coli MG1655; MG1655
  MIC: 4 µg/mL
E. coli ΔtolC JW5503
  MIC: 0.062 µg/mL
K. pneumoniae AR-0347
  MIC: 16 µg/mL
E. cloacae ATCC 29893
  MIC: 8 µg/mL
K. pneumoniae M67297; M67297
  MIC: 32 µg/mL
E. cloacae S28901.1; S28901.1
  MIC: 16 µg/mL
E. coli AR-0493
  MIC: 4 µg/mL
P. aeruginosa PA01; PA01
  MIC: > 64 µg/mL
